Laboratory results published in patent publication EP4813989A1, “CRYSTAL, PHARMACEUTICAL COMPOSITION, PREPARATION METHOD THEREFOR, AND USE THEREOF” (TYK Medicines, Inc., priority 2023, dated 2025).

Tests used:
Format in all cases: physicochemical
[1] = Flowability test (angle of repose); conditions: listed as amorphous sample
Protocol: A flowability determination method was as follows: an angle of repose was determined by using a device composed of 2 to 3 funnels connected in series in a staggered manner, and drug powder was slowly and uniformly passed through the funnels onto a stationary base with a diameter d, so as to form a symmetric powder pile with a single layer of powder at the bottom. During the formation of the powder pile, a height of the funnels was maintained within 2-4 cm from a top of the powder pile, a height h of the cone was determined, and the angle of repose was calculated as tanθ=h/(d/2).

[2] = Accelerated test, related substances by HPLC; conditions: 40°C±2°C, 75%RH±5%RH; for Impurity content RRT0.55 / Impurity content RRT0.66 / Impurity content RRT0.71 / Impurity content RRT0.94 / Impurity content RRT1.02 / Impurity content RRT1.06 / Impurity content RRT1.08 / Impurity content RRT1.15 / Total impurities: open
Protocol: An investigation method for the accelerated test can be seen in Table 14 below.
Change results of related substances in each crystal form under the accelerated condition (40°C±2°C, 75%RH±5%RH) can be seen in Table 18.
HPLC detection results of related substances under the accelerated condition can be seen as follows: Table 18

[3] = Light exposure test, related substances by HPLC; conditions: for Impurity content RRT0.55 / Impurity content RRT0.66 / Impurity content RRT0.71 / Impurity content RRT0.94 / Impurity content RRT1.02 / Impurity content RRT1.06 / Impurity content RRT1.08 / Impurity content RRT1.15 / Total impurities: 4500lx±500lx, open
Text: An investigation method for the light exposure test can be seen in Table 13 below.
Results of related substances in each crystal form under the light exposure condition (4500lx±500lx) can be seen in Table 17.
HPLC detection results of related substances under the light exposure condition can be seen as follows: Table 17

[4] = High-humidity test, related substances by HPLC; conditions: 90%RH±5%RH; for Impurity content RRT0.55 / Impurity content RRT0.66 / Impurity content RRT0.71 / Impurity content RRT0.94 / Impurity content RRT1.02 / Impurity content RRT1.06 / Impurity content RRT1.08 / Impurity content RRT1.15 / Total impurities: open
Text: An investigation method for the high-humidity test can be seen in Table 12 below.
Results of related substances in each crystal form under the high-humidity condition (90%RH±5%RH) can be seen in Table 16.
HPLC detection results of related substances under the high-humidity condition can be seen as follows: Table 16

[5] = Dynamic vapor sorption (DVS) hygroscopicity
Protocol: Dynamic vapor sorption (DVS) was used to investigate hygroscopicities of an active pharmaceutical ingredient in different crystal forms.
Determination method: • instrument: dynamic vapor sorption analyzer; temperature: 25°C; protective gas and flow rate: N2, 200 mL/min; • dm/dt: 0.002%/min; RH range: 0%RH-100%RH; cycle: 1 full cycle.

C[C@@H](Nc1ccn2ncc(C3=NOC(C)(C)N3)c2n1)c1cc(F)cc(F)c1F [amorphous form]
0.17%: Impurity content RRT0.71 ([2]; 5 days) | Impurity content RRT0.71 ([2]; 11 days) | Impurity content RRT0.71 ([3]; 5 days) | Impurity content RRT0.71 ([3]; 11 days) | Impurity content RRT0.71 ([4]; 5 days)
1.10%: Total impurities ([2]; 11 days)
approximately 1.5%: DVS weight loss ([5]; humidity reduced from 100% to 90%)
had hygroscopicity: Hygroscopicity (conclusion) [5]
0.23%: Impurity content RRT0.66 ([3]; 32 days) | Impurity content RRT1.08 ([4]; 32 days)
0.19%: Increase of impurity RRT1.08 content ([3]; 4500 lx±500 lx, 32 days) | Impurity content RRT1.08 ([4]; 5 days)
0.09%: Impurity content RRT1.06 ([3]; 11 days) | Impurity content RRT1.06 ([4]; 5 days) | Impurity content RRT1.06 ([4]; 11 days)
0.29%: Impurity content RRT1.02 ([2]; 0 day) | Impurity content RRT1.02 ([2]; 32 days) | Impurity content RRT1.02 ([3]; 0 day) | Impurity content RRT1.02 ([4]; 0 day)
0.05%: Increase of impurity RRT0.71 content ([3]; 4500 lx±500 lx, 32 days) | Impurity content RRT0.55 ([3]; 32 days) | Impurity content RRT1.15 ([3]; 32 days) | Increase of impurity RRT1.08 content ([4]; 32 days) | Impurity content RRT1.15 ([4]; 32 days)
0.32%: Impurity content RRT1.02 ([2]; 5 days) | Impurity content RRT1.02 ([3]; 5 days)
0.03%: Increase of impurity RRT1.08 content ([2]; 32 days) | Impurity content RRT0.55 ([2]; 0 day) | Impurity content RRT0.94 ([2]; 5 days) | Impurity content RRT0.55 ([2]; 11 days) | Impurity content RRT0.94 ([2]; 11 days) | Impurity content RRT1.15 ([2]; 11 days) | Impurity content RRT1.15 ([2]; 32 days) | Increase of impurity RRT0.66 content ([3]; 4500 lx±500 lx, 32 days) | Impurity content RRT0.55 ([3]; 0 day) | Impurity content RRT0.94 ([3]; 5 days) | Impurity content RRT0.55 ([3]; 11 days) | Impurity content RRT0.94 ([3]; 11 days) | Impurity content RRT1.15 ([3]; 11 days) | Increase of impurity RRT1.02 content ([4]; 32 days) | Impurity content RRT0.55 ([4]; 0 day) | Impurity content RRT0.55 ([4]; 5 days) | Impurity content RRT0.94 ([4]; 5 days) | Impurity content RRT0.55 ([4]; 11 days) | Impurity content RRT0.94 ([4]; 11 days) | Impurity content RRT1.15 ([4]; 11 days) | Impurity content RRT0.55 ([4]; 32 days)
0.33%: Impurity content RRT1.02 ([3]; 11 days)
0.10%: Increase of total impurities ([4]; 32 days)
1.11%: Total impurities ([4]; 11 days) | Total impurities ([4]; 32 days)
1.01%: Total impurities ([2]; 0 day) | Total impurities ([3]; 0 day) | Total impurities ([4]; 0 day)
0.06%: Impurity content RRT1.06 ([2]; 32 days) | Increase of impurity RRT1.02 content ([3]; 4500 lx±500 lx, 32 days) | Impurity content RRT0.94 ([3]; 32 days) | Impurity content RRT1.06 ([4]; 32 days)
0.35%: Impurity content RRT1.02 ([3]; 32 days)
0.07%: Impurity content RRT1.06 ([2]; 0 day) | Impurity content RRT1.06 ([3]; 0 day) | Impurity content RRT1.06 ([3]; 32 days) | Impurity content RRT1.06 ([4]; 0 day)
1.09%: Total impurities ([2]; 5 days) | Total impurities ([3]; 5 days)
0.08%: Impurity content RRT1.06 ([2]; 5 days) | Impurity content RRT1.06 ([2]; 11 days) | Impurity content RRT1.06 ([3]; 5 days)
approximately 3.5%: DVS weight gain ([5]; humidity increased from 90% to 100%)
0.25%: Impurity content RRT1.08 ([4]; 11 days)
0.37%: Increase of total impurities ([3]; 4500 lx±500 lx, 32 days) | Impurity content RRT1.08 ([3]; 32 days)
0.20%: Impurity content RRT0.66 ([2]; 0 day) | Impurity content RRT0.66 ([2]; 5 days) | Impurity content RRT0.66 ([2]; 11 days) | Impurity content RRT0.66 ([2]; 32 days) | Impurity content RRT0.66 ([3]; 0 day) | Impurity content RRT0.66 ([3]; 5 days) | Impurity content RRT0.66 ([4]; 0 day) | Impurity content RRT0.66 ([4]; 11 days) | Impurity content RRT0.66 ([4]; 32 days)
approximately 37.5 °: angle of repose [1]
0.18%: Impurity content RRT1.08 ([2]; 0 day) | Impurity content RRT0.71 ([2]; 32 days) | Impurity content RRT1.08 ([3]; 0 day) | Impurity content RRT1.08 ([4]; 0 day) | Impurity content RRT0.71 ([4]; 32 days)
1.38%: Total impurities ([3]; 32 days)
1.17%: Total impurities ([3]; 11 days)
0.22%: Impurity content RRT1.08 ([2]; 5 days)
0.31%: Impurity content RRT1.02 ([2]; 11 days) | Impurity content RRT1.02 ([4]; 5 days) | Impurity content RRT1.02 ([4]; 11 days) | Impurity content RRT1.02 ([4]; 32 days)
0.16%: Impurity content RRT0.71 ([2]; 0 day) | Impurity content RRT0.71 ([3]; 0 day) | Impurity content RRT0.71 ([4]; 0 day) | Impurity content RRT0.71 ([4]; 11 days)
1.07%: Total impurities ([4]; 5 days)
0.04%: Impurity content RRT0.94 ([2]; 0 day) | Impurity content RRT1.15 ([2]; 0 day) | Impurity content RRT0.55 ([2]; 5 days) | Impurity content RRT1.15 ([2]; 5 days) | Impurity content RRT0.55 ([2]; 32 days) | Impurity content RRT0.94 ([2]; 32 days) | Impurity content RRT0.94 ([3]; 0 day) | Impurity content RRT1.15 ([3]; 0 day) | Impurity content RRT0.55 ([3]; 5 days) | Impurity content RRT1.15 ([3]; 5 days) | Impurity content RRT0.94 ([4]; 0 day) | Impurity content RRT1.15 ([4]; 0 day) | Impurity content RRT1.15 ([4]; 5 days) | Impurity content RRT0.94 ([4]; 32 days)
1.05%: Total impurities ([2]; 32 days)
0.21%: Impurity content RRT1.08 ([2]; 32 days) | Impurity content RRT1.08 ([3]; 5 days) | Impurity content RRT0.66 ([3]; 11 days) | Impurity content RRT0.71 ([3]; 32 days) | Impurity content RRT0.66 ([4]; 5 days)
0.28%: Impurity content RRT1.08 ([3]; 11 days)
0.24%: Impurity content RRT1.08 ([2]; 11 days)
